The results in this text go back to patent US6608086B2, “Dihydropyridines and new uses thereof” (Synaptic Pharmaceutical Corporation, priority 1993, dated 2003).

Molecules are shown by their SMILES. Where two headings read alike, the source gives them in different places.

For test [1], the target named is T1, α1C Human Adrenergic Receptor (Homo sapiens, UniProt P35348).
T1 construct: The entire coding region of α1C (1401 bp); expressed in transfected cells
T1 sequence (P35348 1-466): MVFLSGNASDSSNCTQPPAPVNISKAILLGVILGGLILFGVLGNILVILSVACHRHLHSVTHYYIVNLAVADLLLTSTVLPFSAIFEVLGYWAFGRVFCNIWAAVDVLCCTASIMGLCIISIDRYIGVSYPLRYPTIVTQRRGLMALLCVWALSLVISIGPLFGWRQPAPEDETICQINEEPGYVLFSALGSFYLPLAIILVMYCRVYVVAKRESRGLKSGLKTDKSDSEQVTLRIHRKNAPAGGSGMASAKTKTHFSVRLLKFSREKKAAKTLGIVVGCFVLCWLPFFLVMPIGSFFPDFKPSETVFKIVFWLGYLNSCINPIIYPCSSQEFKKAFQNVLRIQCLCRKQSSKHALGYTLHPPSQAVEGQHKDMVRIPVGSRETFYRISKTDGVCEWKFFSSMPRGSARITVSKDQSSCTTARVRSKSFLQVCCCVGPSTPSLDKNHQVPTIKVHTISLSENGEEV
Put plainly: Radioligand binding, [3H]prazosin, cloned human α1C adrenergic receptor. The conditions noted are these: cloned human α1C receptor, LM(tk-) cell membranes. In outline: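 Stably transfected mouse LM(tk−) fibroblast membranes bearing the cloned human α1C adrenoceptor served as receptor source. Specific binding was taken as the portion of 0.5 nM [3H]prazosin displaceable by 10 μM phentolamine after 20 min at 37° C., pH 7.5, in Mg2+/ascorbate-containing Tris buffer.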

The next test deals with T2, α2B receptor (Homo sapiens, UniProt P18089).
T2 construct: host or cells: LM(tk-) cells, line L-NGC-α2B
T2 sequence (P18089 1-450): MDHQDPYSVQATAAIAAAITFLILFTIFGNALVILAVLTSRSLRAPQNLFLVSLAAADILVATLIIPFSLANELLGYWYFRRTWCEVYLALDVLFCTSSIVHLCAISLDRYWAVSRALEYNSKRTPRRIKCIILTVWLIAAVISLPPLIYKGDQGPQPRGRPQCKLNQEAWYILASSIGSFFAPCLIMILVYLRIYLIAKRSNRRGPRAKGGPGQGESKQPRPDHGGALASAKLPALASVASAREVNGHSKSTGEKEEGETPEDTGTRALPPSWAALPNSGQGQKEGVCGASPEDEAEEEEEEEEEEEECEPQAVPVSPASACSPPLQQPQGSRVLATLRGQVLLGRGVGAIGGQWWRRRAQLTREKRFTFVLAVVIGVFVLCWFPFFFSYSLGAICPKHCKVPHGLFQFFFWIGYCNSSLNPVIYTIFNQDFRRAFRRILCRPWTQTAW
As to the kind of experiment: Competition binding, [3H]rauwolscine, human α2B receptor. The conditions noted are these: for Ki: [3H]rauwolscine, human α2B receptor, LM(tk-) cells. In outline:
(§1)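 LM(tk−) lysates, stable α2A/α2B/α2C transfectants; 25 mM glycylglycine pH 7.6 (RT). [3H]rauwolscine 0.5 nM, equilibrium competition; NSB 10 μM phentolamine. GF/B filtration, cell harvester.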

A further test addresses T3, α2C receptor (Homo sapiens, UniProt P18825).
T3 construct: host or cells: LM(tk-) cells, line L-α2C
T3 sequence (P18825 1-462): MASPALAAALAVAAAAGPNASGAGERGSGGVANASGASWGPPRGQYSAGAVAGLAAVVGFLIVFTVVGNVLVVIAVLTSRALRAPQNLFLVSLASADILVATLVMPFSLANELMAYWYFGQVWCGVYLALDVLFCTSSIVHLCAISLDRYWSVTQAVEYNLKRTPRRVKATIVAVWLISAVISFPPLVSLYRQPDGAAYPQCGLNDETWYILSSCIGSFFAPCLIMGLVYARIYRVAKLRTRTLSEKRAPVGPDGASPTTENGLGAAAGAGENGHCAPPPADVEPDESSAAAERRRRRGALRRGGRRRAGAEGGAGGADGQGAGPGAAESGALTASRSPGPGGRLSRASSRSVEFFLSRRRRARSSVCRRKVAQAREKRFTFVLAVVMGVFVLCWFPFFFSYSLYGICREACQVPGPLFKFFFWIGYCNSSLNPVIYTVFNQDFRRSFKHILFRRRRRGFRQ
As to the kind of experiment: Competition binding, [3H]rauwolscine, human α2C receptor. The conditions noted are these: for Ki: [3H]rauwolscine, human α2C receptor, LM(tk-) cells, read-out: PKi alpha-2 2c (converted). In short, it runs like this: as §1

The mark [2] stands for this setting: read-out: PKi alpha-1 1c (converted).
The mark [3] stands for this setting: read-out: PKi alpha-2 2b (converted).

In the case of `CCOC(=O)C1(c2ccccc2)CCN(CCCNC(=O)C2=C(COCC(F)(F)F)NC(C)=C(C(N)=O)C2c2ccc([N+](=O)[O-])cc2)CC1` (stereo not drawn) [Example 243, 5-Carboxamido-3-(N-(3-(4-ethoxycarbonyl-4-phenylpiperidin-1yl)propyl))carboxamido-2-((2,2,2-trifluoroethyl)oxy)methyl-1,4dihydro-6-methyl-4-(4-nitro)phenylpyridine], the Ki in test [1] (setting [2]) was 5.75 nM; at α2B receptor (setting [3]), 977 nM; on α2C receptor it was 1070 nM.

Regarding `CCOC(=O)C1(c2ccccc2)CCN(CCCNC(=O)C2=C(COCCN)NC(C)=C(C(C)=O)C2c2ccc3c(c2)OCO3)CC1` (stereo not drawn) [Example 244, 5-Acetyl-2-((2-aminoethyl)oxy)methyl-3-(N-(3-(4-ethoxycarbonyl-4-phenylpiperidin-1-yl)propyl)) carboxamido-1,4-dihydro-6-methyl-4-(3,4-methylenedioxy) phenylpyridine], the results for the Ki (in test [1] (setting [2]); at α2B receptor (setting [3]); at α2C receptor) were 3.47 nM, 2140 nM and 97.7 nM, respectively.

On to `COC(=O)C1(c2ccccc2)CCN(CCCNC(=O)C2=C(COCCN)NC(C)=C(C(C)=O)C2c2ccc(F)cc2)CC1` (stereo not drawn) [Example 245, 5-Acetyl-2-((2-aminoethyl)oxy)methyl-4-(4-fluoro)phenyl-1,4-dihydro-3-(N-3-(4-methoxycarbonyl-4-phenylpiperidin-1-yl)propyl)carboxamido-6-methylpyridine], for which the Ki in test [1] (setting [2]) was 5.01 nM; on α2B receptor (setting [3]) it was 2750 nM; at α2C receptor, 316 nM.

`CCC1=C(C(=O)OCCO)C(c2ccc([N+](=O)[O-])cc2)C(C(=O)NCCCN2CCC(c3ccccc3)(c3ccccc3)CC2)=C(COC)N1` (stereo not drawn) [Example 246]: the results for the Ki (in test [1] (PKi alpha-1 1c); at α2B receptor (PKi alpha-2 2b); at α2C receptor) were 2.75 nM, 309 nM and 2400 nM, respectively.

For the compound `CCC1=C(C(=O)NCCOC)C(c2ccc([N+](=O)[O-])cc2)C(C(=O)NCCCN2CCC(c3ccccc3)(c3ccccc3)CC2)=C(COC)N1` (stereo not drawn) [Example 247, 6-Ethyl-1,4-dihydro-5-N-((2-methoxy)ethyl)carboxamido-2-(methyloxy)methyl-4-(4-nitro)phenyl-3-(N-(3-(4,4-diphenylpiperidin-1-yl)propyl)) carboxamidopyridine], the Ki is 24.5 nM in test [1] (PKi alpha-1 1c), 479 nM on α2B receptor (PKi alpha-2 2b) and 302 nM at α2C receptor.

As for `CCC1=C(C(=O)NN2CCOCC2)C(c2ccc([N+](=O)[O-])cc2)C(C(=O)NCCCN2CCC(c3ccccc3)(c3ccccc3)CC2)=C(COC)N1` (stereo not drawn) [Example 248, 6-Ethyl-1,4-dihydro-2-((methyl)oxy)methyl-5-N-(morpholin-4yl)carboxamido-4-(4-nitro)phenyl-3-(N-(3-(4,4-diphenylpiperidin-1-yl)propyl))carboxamidopyridine], the Ki is 174 nM in test [1] (setting [2]), 1150 nM on α2B receptor (setting [3]) and 525 nM on α2C receptor.

For `COC(=O)C1=C(C)NC(C)=C(C(=O)NCCCN2CCC(c3ccccc3)(c3ccccc3)CC2)C1c1cccc([N+](=O)[O-])c1` (stereo not drawn) [Example 249, 1,4-Dihydro-3-methoxycarbonyl-2,6-dimethyl-4-(3-nitrophenyl)-5-(N-(3-(4,4-diphenylpiperidin-1-yl)propyl)carboxamido)-pyridine], the Ki in test [1] (setting [2]) was 0.389 nM. Also, at α2B receptor, the “PKi alpha-2 2b” value is 5.91. For the same compound, the “PKi alpha-2 2c” value at α2C receptor came out at 6.25.

`COC(=O)C1=C(C)NC(C)=C(C(=O)NCCCN2CCC(c3ccccc3)CC2)C1c1ccc2c(c1)OCO2` (stereo not drawn) [Example 250]: the Ki in test [1] (setting [2]) is 1.1 nM; on α2B receptor (setting [3]), 39.8 nM; at α2C receptor it was 36.3 nM.
